# pEC50: −log10 of the molar value. Like-named read-outs stand apart in the source and are kept apart here.
# Experiments:
# [1] = tested on: spontaneously beating right atrium; assay: Isolated rat atria: rate of the spontaneously beating right atrium; conditions: Rattus norvegicus, Krebs solution at 32°C; for Emax: maximal effect relative to isoprenaline maximum (isoprenaline = 1), read-out: Rate Intrinsic Activity; for pEC50: molar concentration producing 50% of the compound's own maximum response
# Procedure: (§1) Sprague-Dawley male rats (300-400g) are killed and the right and left atria dissected out independently and mounted on a combined tissue holder/electrode. […] The rate of the spontaneously beating right atrium (via an isometric transducer and a ratemeter) and the tension of the electrically paced left atrium (via an isometric transducer) are recorded on a M19 chart recorder.
# (§2) After an initial stabilization period, the tissues are exposed to a maximal concentration of isoprenaline (10-^7M). The tissues are then washed several times until rate and tension return to baseline level. A dose-response curve to the test compound is then carried out.
# (§3) Responses to each concentration of test compound are expressed as a percentage of the maximal responses to isoprenaline. Results are given in the form of (a) intrinsic activity (maximal effect of test compound with respect to isoprenaline maximum, i.e. isoprenaline intrinsic activity = 1) and (b) EC50 (the molar concentration at which the test compound produces 50% of its own maximum response).
# [2] = tested on: electrically paced left atrium; assay: Isolated rat atria: tension of the electrically paced left atrium; conditions: Rattus norvegicus, Krebs solution at 32°C; for Emax: maximal effect relative to isoprenaline maximum (isoprenaline = 1), read-out: Tension Intrinsic Activity; for pEC50: molar concentration producing 50% of the compound's own maximum response
# Procedure: as §1, §2, §3
# conscious cats = assay: Inotropic activity in conscious cats; type: in vivo; conditions: for Peak dp/dt: maximal percentage change in dp/dt of left ventricular pressure over initial baseline level; for Peak HR: maximal percentage change in heart rate over initial baseline level; for dp/dt: HR: ratio of peak dp/dt change to peak HR change
# Procedure: Male 3-4.5 kg cats, bred in-house are implanted with a polythene cannula in the left ventricle which is exte- riorised at the back of the neck by means of a small teflon valve. Recordings are made via a pressure transducer attached by means of a length of polyethylene tubing to the cat neck valve.
# During an initial 1 hour stabilisation period, steady baseline recordings are obtained. The test compound contained in a gelatine capsule, is then administered orally. Recording is normally carried out for 6 hours post dosing.
# The maximal percentage change in dp/dt over initial baseline level is used as the index of inotropic activity. Chronotropic activity is taken as the maximal percentage change in HR over the initial baseline level.
# Male Sprague-Dawley rats = assay: Effect on energy expenditure of rats; type: in vivo; conditions: Rattus norvegicus, po, percentage of rate of rats dosed with water; for response vs control in vivo at 7.5 mg/kg: 7.5 mg/kg p.o.; for response vs control in vivo at 4 mg/kg: 4.0 mg/kg p.o.; for response vs control in vivo at 7.8 mg/kg: 7.8 mg/kg p.o.; for response vs control in vivo at 4.1 mg/kg: 4.1 mg/kg p.o.
# Procedure: Water was provided ad lib at all times. The compounds were administered orally in water to 3 or 4 rats. A further 4 rats were dosed orally with water. The rats were placed in boxes through which air was drawn and the oxygen content of the air leaving the boxes was measured. The energy expenditure of the rats was calculated for 3 hours and for 21 hours after dosing from the volume of air leaving the boxes and its oxygen content, following the principles described by J.B. de V. Weir, J. Physiol. (London) 109, 1-9 (1949). The results are expressed as a percentage of the rate of energy expenditure of the rats dosed with water.
# Female CFLP mice = assay: Hypoglycaemic activity (subcutaneous glucose load, blood glucose curve); type: in vivo; conditions: glucose 1 g/kg subcutaneously, 2 hour period, compared with control mice given water
# Procedure: Female CFLP mice, weighing approximately 25 g, were fasted for 24 hours prior to the study. The compounds under study were administered orally as an aqueous solution to each of 6 mice. 30 minutes later a blood sample (20 ul) was obtained from the tail for the analysis of blood glucose. Immediately after taking this blood sample, glucose (1 g/kg body weight) was administered subcutaneously to each mouse. 6 mice were given water as a control. Blood samples were then obtained from each mouse at 30 minute intervals for 120 minutes.
# Compounds that produced a significant (p<0.05) reduction of blood glucose, compared with control mice qiven water, at any time interval were considered active. The area under the blood glucose curve over the 2 hour period after the administration of the glucose was calculated for each compound and compared with the value for control animals.
# [3] = 3 h, 0-3h after dosing, read-out: Mean Energy Expenditure 0-3h
# [4] = 21 h, 0-21h after dosing, read-out: Mean Energy Expenditure 0-21h
Structure (SMILES),Emax [1] [%],pEC50 [1],Emax [2] [%],pEC50 [2],Peak dp/dt (conscious cats; 1 mg/kg p.o.) [%],Peak HR (conscious cats; 1 mg/kg p.o.) [%],dp/dt: HR (conscious cats; 1 mg/kg p.o.),response vs control in vivo at 7.5 mg/kg (Male Sprague-Dawley rats; [3]) [%],response vs control in vivo at 7.5 mg/kg (Male Sprague-Dawley rats; [4]) [%],% Reduction in area under blood glucose curve (Female CFLP mice; 2.5 μmol/kg orally) [%],response vs control in vivo at 4 mg/kg (Male Sprague-Dawley rats; [3]) [%],response vs control in vivo at 4 mg/kg (Male Sprague-Dawley rats; [4]) [%],Peak dp/dt (conscious cats; 0.2 mg/kg p.o.) [%],Peak HR (conscious cats; 0.2 mg/kg p.o.) [%],response vs control in vivo at 7.8 mg/kg (Male Sprague-Dawley rats; [3]) [%],response vs control in vivo at 7.8 mg/kg (Male Sprague-Dawley rats; [4]) [%],% Reduction in area under blood glucose curve (Female CFLP mice; 10 μmol/kg orally) [%],response vs control in vivo at 4.1 mg/kg (Male Sprague-Dawley rats; [3]) [%],response vs control in vivo at 4.1 mg/kg (Male Sprague-Dawley rats; [4]) [%],% Reduction in area under blood glucose curve (Female CFLP mice; 25 μmol/kg orally) [%]
"CC(COc1ccc2c(c1)OCC(=O)N2)NCC(O)c1ccc(O)cc1 (stereo not shown) [Example 1, 7-[2-[2-(4-hydroxyphenyl)-2-hydroxyethylamino]-2-methylethoxy]-2H-1,4-benzoxazin-3-(4H)-one]",97,8.21,97,7.68,230,46,5.0,–,–,–,–,–,–,–,–,–,–,–,–,–
"CC(COc1ccc2c(c1)OCC(=O)N2)NCC(O)c1cccc(Cl)c1 (stereo not shown) [Example 2, 7-[2-[2-(3-Chlorophenyl)-2-hydroxyethylamino]-2-methyl-ethoxy]-2H-1,4-benzoxazin-3-(4H)-one]",44,7.26,18,7.07,–,–,–,128,110,22,–,–,–,–,–,–,–,–,–,–
"CC(COc1ccc2c(c1)OCC(=O)N2)NCC(O)COc1ccc(O)cc1 (stereo not shown) [Example 3, 7-[2-[3-(4-Hydroxyphenoxy)-2-hydroxypropylamino]-2-methylethoxy]-2H-1,4-benzoxazin-3-(4H)-one]",72,8.26,52,7.68,95,13,7.3,–,–,3,108,105,23,0,–,–,–,–,–,–
"CC(COc1ccc2c(c1)NC(=O)CO2)NCC(O)COc1ccc(O)cc1 (stereo not shown) [Example 4, 6-[2-[3-(4-Hydroxyphenoxy)-2-hydroxypropylamino]-2-methylethoxy]-2H-1,4-benzoxazin-3-(4H)-one]",89,7.85,40,7.30,50,36,1.4,–,–,–,–,–,–,–,128,119,–,–,–,–
"CC(COc1ccc2c(c1)NC(=O)CO2)NCC(O)c1cccc(Cl)c1 (stereo not shown) [Example 6, 6-[2-[2-(3-Chlorophenyl)-2-hydroxyethylamino]-2-methylethoxy]-2H-1,4-benzoxazin-3-(4H)-one]",66,7.60,7,6.52,–,–,–,125,105,–,–,–,–,–,–,–,29,–,–,–
"CC(COc1ccc2c(c1)NC(=O)CO2)NCC(O)c1ccc(Cl)c(Cl)c1 (stereo not shown) [Example 7, 6-[2-[2-(3,4-Dichlorophenyl)-2-hydroxyethylamino]-2-methylethoxy]-2H-1,4-benzoxazin-3-(4H)-one]",50,7.44,14,7.35,–,–,–,–,–,–,–,–,–,–,–,–,–,149,107,11

# — patent EP0171702A1, “Benzoxazinone derivatives, preparation and use” (BEECHAM GROUP PLC, priority 1984, dated 1986)
